Entries after “also recorded” stand apart in the source; their conditions may differ.
Columns and labels:
RSV A2 = assay: RSV infection in cyclophosphamide pre-treated mice (pulmonary titer, histology); type: in vivo; conditions: cyclophosphomide pre-treated mice; vs vehicle treated placebo group
From the text: Another in vivo model of RSV infection has been developed using mice treated with cylphosphamide to induce immune deficiency and create a standardized receptive host for experimental infection (Sudo et al., 1999, Antivir Chem Chemother. 10:135-9). The technique provides for quantitation of pulmonary viral load following induced infection. This model can be used to assess the impact of daily intraperitoneal injections of DIM and/or an EGFR inhibitor drug (Gefitinib or Erlotinib) on in vivo RSV replication and induced pathology.
Alternatively, mice are treated intraperitoneally with 100 mg of cyclophosphamide (CYP) per kg of body weight 5 days before virus inoculation. The mice are weighed, anesthetized with sodium pentobarbital (50 mg/kg), and inoculated intranasally with approximately 10^5 PFU of RSV A2 in 50 μl (day 0). […]
Alternatively, the removed lungs are homogenized with glass homogenizers with a Teflon pestle (Ikemoto Scientific Technology Co., Ltd., Tokyo, Japan) in 4 ml of Hanks balanced salt solution supplemented with 0.218 M sucrose, 4.4 mM glutamate, 3.8 mM KH2PO4, and 3.2 mM K2HPO4 as described previously (Piazza et al., 1993, J. Virol. 67:1503-1510). […] The numbers of RSV plaques are counted.
Histologic methods and evaluation. […] The stained sections are coded by number and are evaluated blind as to the previous treatment. […]

breast cancer cells = conditions: cited from earlier work
[1] = system: prostate cancer cell lines; conditions: cited from earlier work
[2] = system: RSV infected A549 pulmonary epithelial cells; assay: Phosphohistone (H2A.X Phosphorylation) assay of apoptosis in RSV infected A549 cells; type: cell-based, human; conditions: 18 hour treatment, FIG. 1
Description: Cell Culture—A549 cells, a tumor cell line with properties of normal airway epithelial cells, were obtained from American Type Culture Collection (ATCC, Manassas, Va.) and incubated at 37° C. in 5% CO2. The cells were cultured in Eagle's minimum essential medium (MEM, Invitrogen) supplemented with 10% fetal bovine serum (HyClone, Logan, Utah) and […] gentamicin. The A549 cells were subcultured by harvesting in 0.12% trypsin no more than 20 times from stock originally designated at pass 70. To minimize effects of exogenous growth factors or cytokines in this system, the supplemented serum concentration was reduced to 0.5% 24 h prior to and during all experiments with RSV infection.
RSV Virus—RSV, strain A2, was obtained from Advanced Biotechnologies Inc. (Columbia, Md.) and was used directly as supplied for all experiments. The viral preparation was tested to have a TCID50 titer of ˜1×10^9 in Hep-2 cells at 7 days. […]
Cell Viability and Death Assays—Induction of Apoptosis by DIM in RSV infected A549 cell was measured according to a Phosphohistone Assay. […] The detection was done by LumiGLO™ chemiluminescent substrate and the plate was read in a microplate luminometer after 10-20 min. Luminescence indicated the extent of apoptosis in the sample examined.

[3] = lung tissue; cited from earlier work

c1ccc2c(Cc3c[nH]c4ccccc34)c[nH]c2c1 [DIM, 3,3′-diindolylmethane]
pathology score on histologic examination (RSV A2): reduced pathology score | pulmonary RSV titers (RSV A2): reduction of pulmonary RSV titers | estrogenic activity (breast cancer cells): estrogenic | anti-androgen activity [1]: anti-androgen activity similar to non-indole antiandrogen drugs | cells undergoing apoptosis ([2]; DIM 70, 210, 700 nM, LY294002 2 and 5 μM): accelerated apopotosis in RSV infected cells; also recorded: significant, dose-related increase in cells undergoing apoptosis | Promotion of apoptosis by DIM compared with LY294002 ([2]; nM DIM): more potent than that seen with LY294002 | tissue distribution [3]: concentrated in lung tissue

From US8552052B2, “Use of diindolylmethane-related indoles for the treatment and prevention of respiratory syncytial virus associated conditions” (BioResponse, L.L.C., priority 2004, dated 2013)
